Measured values: publication PMC6407917, “Identification of GSK3186899/DDD853651 as a Preclinical Development Candidate for the Treatment of Visceral Leishmaniasis” (Journal of Medicinal Chemistry, 2018)

Legend:
Test in all cases: biochemical
Design in all cases: species or system HEK293/K-562/placenta mixed human extract; Kinobeads chemoproteomic competition binding, quantified by TMT LC-MS/MS, dose response up to 20 uM
[1] = molecular target: PAK4 (Homo sapiens, UniProt O96013)
[2] = molecular target: STK4 (Homo sapiens, UniProt Q13043)
[3] = molecular target: EPHB3 (Homo sapiens, UniProt P54753)
[4] = molecular target: SYK (Homo sapiens, UniProt P43405)
[5] = molecular target: MAP3K1 (Homo sapiens, UniProt Q13233)
MAP3K1, sequence (Q13233 whole entry): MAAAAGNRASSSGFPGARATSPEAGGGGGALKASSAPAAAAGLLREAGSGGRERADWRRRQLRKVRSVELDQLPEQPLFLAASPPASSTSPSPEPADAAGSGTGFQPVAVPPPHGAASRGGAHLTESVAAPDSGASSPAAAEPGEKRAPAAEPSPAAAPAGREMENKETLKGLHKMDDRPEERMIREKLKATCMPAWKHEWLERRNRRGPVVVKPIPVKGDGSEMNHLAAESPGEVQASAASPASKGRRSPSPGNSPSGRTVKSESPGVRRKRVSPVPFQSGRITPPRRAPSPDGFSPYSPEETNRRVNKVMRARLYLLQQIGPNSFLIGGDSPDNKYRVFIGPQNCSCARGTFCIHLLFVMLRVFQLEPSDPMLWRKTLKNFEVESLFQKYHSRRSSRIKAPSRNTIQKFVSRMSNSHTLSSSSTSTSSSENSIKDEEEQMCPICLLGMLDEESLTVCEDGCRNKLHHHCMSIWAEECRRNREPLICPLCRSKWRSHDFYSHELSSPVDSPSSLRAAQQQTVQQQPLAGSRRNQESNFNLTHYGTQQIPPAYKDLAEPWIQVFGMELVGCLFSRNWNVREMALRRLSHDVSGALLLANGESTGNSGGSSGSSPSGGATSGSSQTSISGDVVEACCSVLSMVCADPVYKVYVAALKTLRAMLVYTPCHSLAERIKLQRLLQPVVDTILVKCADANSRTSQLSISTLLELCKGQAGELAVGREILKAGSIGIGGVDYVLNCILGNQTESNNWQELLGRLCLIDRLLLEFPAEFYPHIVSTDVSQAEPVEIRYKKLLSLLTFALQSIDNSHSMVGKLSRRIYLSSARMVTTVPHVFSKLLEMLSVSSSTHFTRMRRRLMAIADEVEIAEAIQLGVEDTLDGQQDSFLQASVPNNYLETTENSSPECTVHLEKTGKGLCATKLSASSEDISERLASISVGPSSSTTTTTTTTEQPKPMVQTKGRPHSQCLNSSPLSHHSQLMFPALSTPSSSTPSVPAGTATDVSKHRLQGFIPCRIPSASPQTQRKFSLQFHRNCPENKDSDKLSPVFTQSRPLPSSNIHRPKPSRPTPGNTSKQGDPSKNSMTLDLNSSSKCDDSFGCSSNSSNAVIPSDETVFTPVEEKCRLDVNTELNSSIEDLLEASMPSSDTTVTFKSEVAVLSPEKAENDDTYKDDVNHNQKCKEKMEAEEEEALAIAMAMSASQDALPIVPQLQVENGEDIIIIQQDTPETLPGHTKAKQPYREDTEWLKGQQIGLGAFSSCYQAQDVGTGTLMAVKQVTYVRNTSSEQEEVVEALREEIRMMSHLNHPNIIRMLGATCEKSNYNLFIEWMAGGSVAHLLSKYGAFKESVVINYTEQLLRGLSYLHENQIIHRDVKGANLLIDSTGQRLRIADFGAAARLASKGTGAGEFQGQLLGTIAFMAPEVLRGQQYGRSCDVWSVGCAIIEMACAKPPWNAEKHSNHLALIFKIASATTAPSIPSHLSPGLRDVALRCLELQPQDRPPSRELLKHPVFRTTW

[6] = molecular target: NLK (Homo sapiens, UniProt Q9UBE8)
[7] = molecular target: MAP3K2 (Homo sapiens, UniProt Q9Y2U5)
[8] = molecular target: MARK1 (Homo sapiens, UniProt Q9P0L2)
[9] = molecular target: OXSR1 (Homo sapiens, UniProt O95747)
OXSR1, sequence (O95747 whole entry): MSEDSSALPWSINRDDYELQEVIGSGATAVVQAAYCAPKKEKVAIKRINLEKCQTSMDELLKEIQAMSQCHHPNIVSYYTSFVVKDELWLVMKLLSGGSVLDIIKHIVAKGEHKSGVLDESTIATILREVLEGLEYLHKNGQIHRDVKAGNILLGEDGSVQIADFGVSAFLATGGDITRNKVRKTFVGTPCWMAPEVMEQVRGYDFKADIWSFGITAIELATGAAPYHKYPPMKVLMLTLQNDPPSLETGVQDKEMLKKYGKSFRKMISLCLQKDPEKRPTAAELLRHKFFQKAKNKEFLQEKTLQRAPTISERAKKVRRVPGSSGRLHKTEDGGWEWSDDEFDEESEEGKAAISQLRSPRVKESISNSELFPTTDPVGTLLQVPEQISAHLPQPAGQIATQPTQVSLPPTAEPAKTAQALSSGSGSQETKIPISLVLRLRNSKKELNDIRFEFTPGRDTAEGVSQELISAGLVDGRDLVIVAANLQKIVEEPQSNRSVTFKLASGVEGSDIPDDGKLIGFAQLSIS

[10] = molecular target: STK39 (Homo sapiens, UniProt Q9UEW8)
[11] = molecular target: CHUK (Homo sapiens, UniProt O15111)
[12] = molecular target: CAMKK2 (Homo sapiens, UniProt Q96RR4)
[13] = molecular target: EIF2AK1 (Homo sapiens, UniProt Q9BQI3)
[14] = molecular target: FER (Homo sapiens, UniProt P16591)
FER, sequence (P16591 whole entry): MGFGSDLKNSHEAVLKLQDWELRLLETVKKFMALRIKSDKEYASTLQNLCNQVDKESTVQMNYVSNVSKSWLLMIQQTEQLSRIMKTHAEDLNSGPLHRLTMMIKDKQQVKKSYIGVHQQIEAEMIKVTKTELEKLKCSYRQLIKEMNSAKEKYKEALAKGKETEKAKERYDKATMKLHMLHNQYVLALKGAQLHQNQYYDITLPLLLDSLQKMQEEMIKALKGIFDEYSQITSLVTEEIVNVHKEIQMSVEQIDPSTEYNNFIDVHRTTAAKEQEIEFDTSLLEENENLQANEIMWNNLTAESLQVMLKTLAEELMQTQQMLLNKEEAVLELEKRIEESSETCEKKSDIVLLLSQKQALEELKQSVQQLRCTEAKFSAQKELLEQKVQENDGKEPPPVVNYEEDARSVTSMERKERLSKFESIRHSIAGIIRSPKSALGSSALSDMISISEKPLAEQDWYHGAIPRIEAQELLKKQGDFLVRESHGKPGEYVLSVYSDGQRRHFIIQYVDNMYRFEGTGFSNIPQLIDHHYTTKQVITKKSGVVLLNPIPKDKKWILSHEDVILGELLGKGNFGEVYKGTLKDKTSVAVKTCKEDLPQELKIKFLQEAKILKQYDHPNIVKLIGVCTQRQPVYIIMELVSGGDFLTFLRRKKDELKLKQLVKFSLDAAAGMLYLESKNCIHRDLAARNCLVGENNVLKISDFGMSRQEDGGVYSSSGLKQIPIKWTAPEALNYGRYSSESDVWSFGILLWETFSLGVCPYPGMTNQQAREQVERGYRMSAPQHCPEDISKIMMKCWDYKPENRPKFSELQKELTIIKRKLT

[15] = molecular target: ILK (Homo sapiens, UniProt Q13418)
ILK, sequence (Q13418 whole entry): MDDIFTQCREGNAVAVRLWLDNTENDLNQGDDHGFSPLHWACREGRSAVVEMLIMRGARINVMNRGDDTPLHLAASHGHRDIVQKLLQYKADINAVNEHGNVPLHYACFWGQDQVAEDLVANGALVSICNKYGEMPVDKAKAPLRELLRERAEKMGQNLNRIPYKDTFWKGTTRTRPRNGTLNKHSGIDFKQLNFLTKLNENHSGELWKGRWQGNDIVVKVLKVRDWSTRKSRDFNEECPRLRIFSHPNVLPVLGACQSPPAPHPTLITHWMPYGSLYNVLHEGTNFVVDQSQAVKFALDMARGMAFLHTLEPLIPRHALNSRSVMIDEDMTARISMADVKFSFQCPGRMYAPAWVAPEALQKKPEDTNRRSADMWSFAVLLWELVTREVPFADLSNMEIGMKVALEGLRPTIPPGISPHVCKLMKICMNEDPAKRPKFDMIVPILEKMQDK

[16] = molecular target: CDC42BPA (Homo sapiens, UniProt Q5VT25)
[17] = molecular target: KIT (Homo sapiens, UniProt P10721)
[18] = molecular target: SIK2 (Homo sapiens, UniProt Q9H0K1)
[19] = molecular target: MAP4K3 (Homo sapiens, UniProt Q8IVH8)
MAP4K3, sequence (Q8IVH8 whole entry): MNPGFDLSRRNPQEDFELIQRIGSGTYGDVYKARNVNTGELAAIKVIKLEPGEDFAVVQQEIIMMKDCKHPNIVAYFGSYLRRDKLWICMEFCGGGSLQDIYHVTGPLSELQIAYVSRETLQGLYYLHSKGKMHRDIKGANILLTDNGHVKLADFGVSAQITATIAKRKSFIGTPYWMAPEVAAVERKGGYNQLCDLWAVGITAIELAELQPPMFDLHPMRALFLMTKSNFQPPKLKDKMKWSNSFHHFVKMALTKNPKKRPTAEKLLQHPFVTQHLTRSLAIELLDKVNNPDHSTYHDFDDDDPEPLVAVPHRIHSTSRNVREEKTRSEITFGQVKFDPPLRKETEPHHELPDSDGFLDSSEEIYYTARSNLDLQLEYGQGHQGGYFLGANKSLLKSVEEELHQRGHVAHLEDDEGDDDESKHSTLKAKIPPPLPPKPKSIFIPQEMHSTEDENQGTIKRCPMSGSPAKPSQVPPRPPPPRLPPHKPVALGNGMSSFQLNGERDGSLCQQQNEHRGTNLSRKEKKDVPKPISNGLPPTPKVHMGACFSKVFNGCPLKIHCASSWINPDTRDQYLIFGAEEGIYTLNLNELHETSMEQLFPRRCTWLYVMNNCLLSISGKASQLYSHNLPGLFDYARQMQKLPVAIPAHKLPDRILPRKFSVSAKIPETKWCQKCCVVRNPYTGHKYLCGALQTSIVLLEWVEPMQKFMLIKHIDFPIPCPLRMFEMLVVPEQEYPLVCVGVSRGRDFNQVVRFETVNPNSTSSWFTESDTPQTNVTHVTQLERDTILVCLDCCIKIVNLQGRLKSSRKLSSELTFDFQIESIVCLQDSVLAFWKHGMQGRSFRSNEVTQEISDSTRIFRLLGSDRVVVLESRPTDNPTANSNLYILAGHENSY

[20] = molecular target: PRKCI (Homo sapiens, UniProt P41743)
[21] = molecular target: mTOR (Homo sapiens, UniProt P42345)

PAK4, sequence (O96013 whole entry): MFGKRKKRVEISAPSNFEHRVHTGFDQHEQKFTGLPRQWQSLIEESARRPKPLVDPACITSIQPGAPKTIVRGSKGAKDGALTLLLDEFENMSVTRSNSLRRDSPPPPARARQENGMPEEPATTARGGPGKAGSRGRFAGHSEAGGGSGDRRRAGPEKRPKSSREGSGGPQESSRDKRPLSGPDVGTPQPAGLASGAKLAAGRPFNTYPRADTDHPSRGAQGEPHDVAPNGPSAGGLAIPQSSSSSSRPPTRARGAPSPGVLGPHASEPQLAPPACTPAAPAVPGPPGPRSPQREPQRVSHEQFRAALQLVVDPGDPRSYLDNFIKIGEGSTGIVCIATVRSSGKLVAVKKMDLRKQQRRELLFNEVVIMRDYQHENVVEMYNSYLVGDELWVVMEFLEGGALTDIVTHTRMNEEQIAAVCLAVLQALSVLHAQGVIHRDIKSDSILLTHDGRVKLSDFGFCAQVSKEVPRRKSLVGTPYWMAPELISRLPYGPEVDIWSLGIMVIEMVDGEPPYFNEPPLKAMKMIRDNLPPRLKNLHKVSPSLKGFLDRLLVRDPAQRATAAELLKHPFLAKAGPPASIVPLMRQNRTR

IC50 [1]: ≥ 20 µM
IC50 [2]: ≥ 20 µM
IC50 [3]: ≥ 20 µM
IC50 [4]: ≥ 20 µM
IC50 [5]: ≥ 20 µM
IC50 [6]: 3.4 µM
IC50 [7]: ≥ 20 µM
IC50 [8]: ≥ 20 µM
IC50 [9]: ≥ 20 µM
IC50 [10]: ≥ 20 µM
IC50 [11]: ≥ 20 µM
IC50 [12]: 8.6 µM
IC50 [13]: ≥ 20 µM
IC50 [14]: ≥ 20 µM
IC50 [15]: ≥ 20 µM
IC50 [16]: ≥ 20 µM
IC50 [17]: ≥ 20 µM
IC50 [18]: ≥ 20 µM
IC50 [19]: ≥ 20 µM
IC50 [20]: ≥ 20 µM
IC50 [21]: ≥ 20 µM
Structure (SMILES): COc1ccccc1-c1n[nH]c2nc(N[C@H]3CC[C@H](NS(=O)(=O)CCC(F)(F)F)CC3)nc(OC)c12 [compound 31, 3,3,3-Trifluoro-N-(trans-4-((4-methoxy-3-(2-methoxyphenyl)-1H-pyrazolo[3,4-d]pyrimidin-6-yl)amino)cyclohexyl)propane-1-sulfonamide]
